# Source: US9406887B2, “Solution, organic semiconductor material, organic semiconductor film, electronic device and electronic equipment” (RICOH COMPANY, LTD., priority 2013, dated 2016)
# Tests used:
# [1] = Weight variation (TG) on heating, thermal analyzer EXSTRA6200; type: physicochemical; conditions: heated to 250° C. at 20° C./min, nitrogen atmosphere
# Experimental: After 50 mg (0.10 mmol) of the compound having the formula (1-1) were placed in an aluminum pan, they were heated to have a temperature of 250° C. at 20° C./min and weight variation (TG) thereof was measured using a thermal analyzer EXSTRA6200 from Seiko Instruments, Inc. in a nitrogen atmosphere. Thus, 29 mg (yield rate quant.) of a dark purple solid compound having the formula (2-1) was obtained.
# [2] = Solubility of the compound in an organic solvent (saturated solution at 25° C. after reflux); type: physicochemical; conditions: cooled to 25° C. after reflux; for solubility in CHCl3: chloroform
# Experimental: After the compound was added to […] of an organic solvent such as toluene, THF and chloroform until insoluble residue remained, the mixture was stirred for 10 min while the organic solvent was refluxed with heat. Next, after the mixture was cooled to have a temperature of 25° C., it was stirred for 1 hr. Further, after quietly put for 16 hrs, the top clear layer of the mixture was filtered through a PTFE filter having a hole diameter of 0.2 μm to prepare a saturated solution. Next, the solution was dried under reduced pressure and the solubility of the compound in an organic solvent was measured. The evaluation standard of the solubility of the compound in an organic solvent is as follows.
Compound,weight reduction (TG) [1] [%],solubility in THF [2],solubility in CHCl3 [2],solubility in Toluene [2]
CC(C)(C)OC(=O)N1C(=O)C2=C(c3ccc(Br)s3)N(C(=O)OC(C)(C)C)C(=O)C2=C1c1ccc(Br)s1 [formula (1-4)],31.6,Excellent (not less than 0.5% by weight),Excellent (not less than 0.5% by weight),Good (not less than 0.1% and less than 0.5% by weight)
CCCCCCc1ccc(-c2ccc(C3=C4C(=O)N(C(=O)OC(C)(C)C)C(c5ccc(-c6ccc(CCCCCC)s6)s5)=C4C(=O)N3C(=O)OC(C)(C)C)s2)s1 [formula (1-12)],23.8,Good (not less than 0.1% and less than 0.5% by weight),Excellent (not less than 0.5% by weight),Excellent (not less than 0.5% by weight)
CCCCCCc1csc(-c2ccc(C3=C4C(=O)N(C(=O)OC(C)(C)C)C(c5ccc(-c6cc(CCCCCC)cs6)s5)=C4C(=O)N3C(=O)OC(C)(C)C)s2)c1 [formula (1-17)],23.1,Excellent (not less than 0.5% by weight),Excellent (not less than 0.5% by weight),Excellent (not less than 0.5% by weight)
CCCCCCOc1ccc(-c2ccc(C3=C4C(=O)N(C(=O)OC(C)(C)C)C(c5ccc(-c6ccc(OCCCCCC)cc6)s5)=C4C(=O)N3C(=O)OC(C)(C)C)s2)cc1 [formula (1-18)],23.1,Excellent (not less than 0.5% by weight),Excellent (not less than 0.5% by weight),Excellent (not less than 0.5% by weight)
CCCCCCCCCCCCOc1cc(-c2ccc(-c3ccc(C4=C5C(=O)N(C(=O)OC(C)(C)C)C(c6ccc(-c7ccc(-c8cc(OCCCCCCCCCCCC)c(OCCCCCCCCCCCC)c(OCCCCCCCCCCCC)c8)s7)s6)=C5C(=O)N4C(=O)OC(C)(C)C)s3)s2)cc(OCCCCCCCCCCCC)c1OCCCCCCCCCCCC [formula (1-25)],10.3,Excellent (not less than 0.5% by weight),Excellent (not less than 0.5% by weight),Excellent (not less than 0.5% by weight)
CCCCCCCCCCCCOc1cc(-c2ccc(-c3ccc(-c4ccc(C5=C6C(=O)N(C(=O)OC(C)(C)C)C(c7ccc(-c8ccc(-c9ccc(-c%10cc(OCCCCCCCCCCCC)c(OCCCCCCCCCCCC)c(OCCCCCCCCCCCC)c%10)s9)s8)s7)=C6C(=O)N5C(=O)OC(C)(C)C)s4)s3)s2)cc(OCCCCCCCCCCCC)c1OCCCCCCCCCCCC [formula (1-27)],9.4,Good (not less than 0.1% and less than 0.5% by weight),Excellent (not less than 0.5% by weight),Good (not less than 0.1% and less than 0.5% by weight)

# The remaining lines, values ahead:
weight reduction (TG) [1] [%],solubility in THF [2],solubility in CHCl3 [2],solubility in Toluene [2],Compound
34.6,Excellent (not less than 0.5% by weight),Excellent (not less than 0.5% by weight),Excellent (not less than 0.5% by weight),CC(C)(C)OC(=O)N1C(=O)C2=C(c3cccs3)N(C(=O)OC(C)(C)C)C(=O)C2=C1c1cccs1 [formula (1-1)]
19.8,Excellent (not less than 0.5% by weight),Excellent (not less than 0.5% by weight),Excellent (not less than 0.5% by weight),CCCCCCc1ccc(-c2ccc(-c3ccc(C4=C5C(=O)N(C(=O)OC(C)(C)C)C(c6ccc(-c7ccc(-c8ccc(CCCCCC)s8)s7)s6)=C5C(=O)N4C(=O)OC(C)(C)C)s3)s2)s1 [formula (1-16)]
–,Poor (less than 0.005% by weight),Poor (less than 0.005% by weight),Poor (less than 0.005% by weight),O=C1NC(c2cccs2)=C2C(=O)NC(c3cccs3)=C12 [formula (2-1)]
